Test results from patent US20130324493A1, “COMPOSITIONS COMPRISING NINGNANMYCIN AND USES THEREFOR” (North Carolina State University, priority 2012, published 2013).
In brackets after ≈: the same amount, converted by molar mass. Like-named read-outs stand apart in the source and are kept apart here.

Assays:
Oncorhynchus mykiss = settings: cited from earlier work
rat [1] = settings: Trinity 1.69SC MSDS; cited from earlier work
honey bee = settings: cited from earlier work
rat [2] = settings: cited from earlier work
anthracnose (C. cereale) = experiment: Field efficacy test, control of anthracnose on putting green turf; format: in vivo, 'Dominant Plus' creeping bentgrass; settings: Trinity 1.69SC 0.32 ml/m^2, 14 d interval; for Turf quality: 1-to-9 scale (9 = best), anthracnose trial
guinea pig = settings: in vivo; cited from earlier work
rabbit [3] = settings: in vivo; cited from earlier work
Colletotrichum cereale = experiment: In vitro sensitivity assay (radial growth on fungicide-amended PDA); format: cell-based
Protocol: (§1) Three isolates of S. homoeocarpa and two isolates of C. cereale were selected to evaluate ningnanmycin (Ningnanmycin 10WP, Deqiang Biological Co., LTD. Harbin, Helongjiang, China) in vitro activities using 5 three-fold dilutions from 0.81 to 0.01 μg a.i./ml. […] Based on preliminary experiments, five dilutions of triticonazole were used, ranging from 0.81 to 0.01 μg a.i/ml for isolates of S. homoeocarpa and from 6.25 to 0.01 μg a.i./ml for isolates of C. cereale. All isolates were prepared for long-term storage on pieces of dried filter paper maintained at −80° C. Filter paper sections containing each isolate were removed from −80° C. storage and placed on PDA amended with 0.05 μg/ml each of chloramphenicol, streptomycin, and tetracycline (PDA+++). After 3 days, mycelium-containing plugs (1×1 cm) were transferred to water agar for another 2 days. Then, water agar plugs (0.45 cm diameter) were cut from the periphery of the colony using a cork borer and placed on the center of Petri dishes containing non-amended PDA and PDA amended with the serial concentrations of each fungicide with three replicates per isolate. Radial growth was measured after three days (72 h) incubation at room temperature for isolates of S. homoeocarpa and seven days for isolates of C. cereale. Relative Growth (RG) was calculated by dividing colony diameter on amended PDA by that on the non-amended PDA. EC50 values were then calculated using the method described by Secor et al. (Fungicide resistance assays for fungal plant pathogens. Methods Mol Biol. 835:385-392, 2012). The in vitro sensitivity assay repeated twice and EC50 value of each isolates was determined as the mean of EC50 values from two assays.

Sclerotinia homoeocarpa = experiment: as above; format: cell-based; settings: Clarireedia homoeocarpa
Protocol: as §1

rabbit [4] = settings: in vivo; cited from earlier work; remark: listed apart in the source
green algae = settings: in vivo; cited from earlier work
Lepomis macrochirus = settings: cited from earlier work

Compound: CC1(C)CCC(=Cc2ccc(Cl)cc2)C1(O)Cn1cncn1 (stereo not shown) [triticonazole, reference compound]
- Fish LC50 (96 h) (Oncorhynchus mykiss): >3.6 mg/L
- Acute toxicity Oral LD50 (rat [1]): >5,000 mg/kg
- Non-mammals, honey bee (honey bee): 1.87 μg/bee
- Acute toxicity Dermal LD50 (rat [2]): >2,000/mg/kg
- Turf quality (anthracnose (C. cereale); Aug. 8, 2010): 5
- Turf quality (anthracnose (C. cereale); Aug. 15, 2010): 5
- Anthracnose severity (%) (anthracnose (C. cereale); Aug. 1, 2011): 17%
- Anthracnose severity (%) (anthracnose (C. cereale); Aug. 8, 2011): 3%
- Anthracnose severity (%) (anthracnose (C. cereale); Aug. 15, 2011): 12%
- Anthracnose severity (%) (anthracnose (C. cereale); Jul. 25, 2011): 16%
- Sensitization (guinea pig): no
- Irritation to eye (rabbit [3]): slightly irritating
- EC50 (Colletotrichum cereale; 168 h, isolate ABR1, radial growth after seven days, mean of two assays, read-out: EC50): 1.24 µg/mL (≈ 3.9 µM)
- EC50 (Colletotrichum cereale; 168 h, isolate ABR12, radial growth after seven days, mean of two assays, read-out: EC50): 0.72 µg/mL (≈ 2.27 µM)
- EC50 (Colletotrichum cereale; mean of two isolates, read-out: mean EC50): 0.98 µg/mL (≈ 3.08 µM)
- EC50 (Sclerotinia homoeocarpa; 72 h, isolate 761SHME, radial growth after 72 h, mean of two assays, Ningnanmycin 10WP / technical triticonazole, μg a.i./ml, read-out: EC50): 0.05 µg/mL (≈ 0.157 µM)
- EC50 (Sclerotinia homoeocarpa; 72 h, isolate LWC 27, radial growth after 72 h, mean of two assays, read-out: EC50): 0.06 µg/mL (≈ 0.189 µM)
- EC50 (Sclerotinia homoeocarpa; 72 h, isolate PST4, radial growth after 72 h, mean of two assays, read-out: EC50): 0.03 µg/mL (≈ 0.0944 µM)
- EC50 (Sclerotinia homoeocarpa; mean of three isolates, read-out: mean EC50): 0.05 µg/mL (≈ 0.157 µM)
- Irritation to skin (rabbit [4]): moderately irritating
- Aquatic plants EC50 (green algae): >1 mg/L (96 h)
- Fish LC50 (96 h) (Lepomis macrochirus): >8.9 mg/L (Lepomis
